# Columns and labels:
# [1] = Solubility of curcumin and quercetin in phosphate buffer pH 6.8; format: physicochemical; settings: 0.2 µm filter
# Description: Following the same protocol, the same amount of quercetin (150 mg) is solubilized in phosphate buffer pH 6.8. […] Solubilized quercetin: […] of the initial dose.
# [2] = 42 mg or 84 mg of oral curcumin; even under metabolised forms; cited from earlier work
Structure (SMILES),"Solubilized curcumin ([1]; 84 mg curcumin in 900 ml phosphate buffer pH 6.8, 1 hour at 37°C)",oral bioavailability of low dosages of curcumin [2],"Solubilized quercetin ([1]; 900 ml phosphate buffer pH 6.8, 1 h at 37°C)"
"COc1cc(C=CC(=O)CC(=O)C=Cc2ccc(O)c(OC)c2)ccc1O [curcumin, 1,7-bis(4-hydroxyl-3-methoxyphenyl)-1,6-heptadiene-3,5-dione]",0.004 % of the initial dose,not bioavailable at all,–
"O=c1c(O)c(-c2ccc(O)c(O)c2)oc2cc(O)cc(O)c12 [quercetin, Quercetin]",–,–,4 % of the initial dose

# Reference: patent EP2229940B1, “Pharmaceutical composition presenting anti-inflammatory and anti-histaminic properties” (Bioxtract S.A., priority 2009, dated 2010)
